pKd: −log10 of the molar value. Where two headings read alike, the source gives them in different places. One block for each compound: values may come before it. Where a SMILES comes first, the peptide text is derived from it.
Tests used:
Test in all cases: microscale thermophoresis
Assay type in all cases: binding
[1] = molecular target: T1, orotate phosphoribosyltransferase (PyrE) (Escherichia coli, UniProt P0A7E3)
T1 sequence (P0A7E3 2-213): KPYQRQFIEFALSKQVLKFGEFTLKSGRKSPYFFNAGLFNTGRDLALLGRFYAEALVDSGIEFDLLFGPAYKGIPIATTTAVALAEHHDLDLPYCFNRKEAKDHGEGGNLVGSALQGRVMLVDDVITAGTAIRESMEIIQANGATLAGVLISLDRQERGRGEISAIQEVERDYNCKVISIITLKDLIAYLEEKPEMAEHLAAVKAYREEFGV

FabF = molecular target: T2, FabF (Escherichia coli, UniProt P0AAI5)
T2 sequence (P0AAI5 2-413): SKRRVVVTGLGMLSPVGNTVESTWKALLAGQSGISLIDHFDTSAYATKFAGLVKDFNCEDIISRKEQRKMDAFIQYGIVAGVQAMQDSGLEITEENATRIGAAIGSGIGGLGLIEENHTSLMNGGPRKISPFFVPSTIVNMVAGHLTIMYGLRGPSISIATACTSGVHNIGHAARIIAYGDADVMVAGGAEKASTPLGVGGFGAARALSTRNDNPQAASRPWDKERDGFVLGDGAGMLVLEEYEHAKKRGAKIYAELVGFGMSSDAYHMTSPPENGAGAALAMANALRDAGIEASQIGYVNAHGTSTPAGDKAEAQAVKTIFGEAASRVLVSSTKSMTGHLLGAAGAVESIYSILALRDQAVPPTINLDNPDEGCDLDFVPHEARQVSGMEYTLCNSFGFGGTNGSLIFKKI

[2] = molecular target: T1, orotate phosphoribosyltransferase (PyrE); remark: listed apart in the source

pKd [1]: 5.09
SMILES: O=P(O)(O)OC[C@H]1O[C@H](OP(=O)(O)OP(=O)(O)O)[C@H](O)[C@@H]1O [PRPP]

pKd (FabF): 4.85 to 4.92
SMILES: CC(C)CC(NC(=O)C(N)C(C)C)C(=O)O (stereo not drawn) [Val-Leu] (H-Val-Leu-OH; configuration not given here)

pKd [2]: 4.04
SMILES: Cc1cc2nc3[nH]c(=O)[nH]c(=O)c3nc2cc1C [lumichrome]
